Among the data in patent publication US20180057505A1, “BICYCLIC HETEROARYL COMPOUNDS USEFUL AS INHIBITORS OF THE PAR-2 SIGNALING PATHWAY” (VERTEX PHARMACEUTICALS INCORPORATED, priority 2015, published 2018) are IC50 values, retold here.

The structures appear in SMILES notation. A value given as a limit tells only on which side of the number the result lay.

Type in all cases: cell-based
Experiment [1] has as its target T1, PAR2 (HT-29 cells) (Homo sapiens, UniProt P55085).
T1 construct: host or cells: HT-29
T1 sequence (P55085 26-397): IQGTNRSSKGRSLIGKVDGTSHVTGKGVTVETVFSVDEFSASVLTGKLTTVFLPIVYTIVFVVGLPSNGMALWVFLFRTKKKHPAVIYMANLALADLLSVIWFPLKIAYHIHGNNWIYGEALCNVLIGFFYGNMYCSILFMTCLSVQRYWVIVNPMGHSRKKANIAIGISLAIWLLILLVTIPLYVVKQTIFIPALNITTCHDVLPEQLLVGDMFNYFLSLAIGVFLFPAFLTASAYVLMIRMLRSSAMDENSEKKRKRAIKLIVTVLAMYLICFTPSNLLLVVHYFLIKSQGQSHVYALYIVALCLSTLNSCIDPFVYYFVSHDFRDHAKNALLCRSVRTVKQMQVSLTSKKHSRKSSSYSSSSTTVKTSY
Nature of the experiment: Ca FLIPR TETRA assay, ANTAGONIST mode, activator 8 μM SLIGKV. The settings on record: HT-29 cells; activator 8 μM SLIGKV; Method A: maximal concentration of antagonist 0.1, 1 or 2 μM. In outline:
(§1)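 Inhibition of agonist-evoked calcium signals was measured in human HT-29 colon cells cultured overnight in 1% FBS McCoy's medium. Test compounds preincubated 30 min at r.t.; activators at final concentrations as stated for each readout.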

Experiment [2] concerns Thrombin-stimulated Ca2+ response in HT-29 cells. Nature of the experiment: Ca FLIPR TETRA assay, ANTAGONIST mode, activator 1 U/mL Thrombin. The settings on record: Homo sapiens; HT-29 cells, activator 1 U/mL Thrombin. An outline of the steps:
as §1

Experiment [3] has as its target T1, PAR2 (HT-29 cells). Description: Ca FLIPR TETRA assay, ANTAGONIST mode, activator 3.1 U/mL trypsin. The settings on record: HT-29 cells; activator 3.1 U/mL trypsin; Method A: maximal concentration of antagonist 0.1, 1 or 2 μM. In outline: as §1
Experiment [4] has as its system UTP-stimulated Ca2+ response in HT-29 cells. Description: Ca FLIPR TETRA assay, ANTAGONIST mode, activator 0.6 μM UTP. The note with it: Homo sapiens; HT-29 cells, activator 0.6 μM UTP. In outline: as §1

With `CC(C)(C)c1cc(-c2ccc(Cl)cc2)nc2cc(C(=O)N3CCN(c4ccc(C(=O)O)nn4)CC3(C)C)oc12` [Example I-471], the IC50 on PAR2 (HT-29 cells) [1] was 1.1 nM; in experiment [2], more than 2000 nM; at PAR2 (HT-29 cells) [3], 1.4 nM; in experiment [4], more than 2000 nM.

On to `CC(C)(C)c1cc(-c2ccc(Cl)c(F)c2)nc2cc(C(=O)N3CCN(C(=O)[C@@H]4CCS(=O)(=O)N4)CC3(C)C)oc12` [Example I-472], for which the IC50 is 33.9 nM on PAR2 (HT-29 cells) [1], more than 2000 nM in experiment [2], 20 nM on PAR2 (HT-29 cells) [3] and more than 2000 nM in experiment [4].

Turning to `CC(C)(C)c1cc(-c2ccc(Cl)c(F)c2)nc2cc(C(=O)N3CCN(C(=O)[C@H]4CCS(=O)(=O)N4)CC3(C)C)oc12` [Example I-473], the IC50 was 18 nM at PAR2 (HT-29 cells) [1], more than 2000 nM in experiment [2], 27.7 nM at PAR2 (HT-29 cells) [3] and more than 2000 nM in experiment [4].

Take `CC(C)(C)c1cc(-c2ccc(Cl)cc2)nc2cc(C(=O)N3CCN(C(=O)[C@@H]4CCS(=O)(=O)N4)CC3(C)C)oc12` [Example I-474]: the IC50 on PAR2 (HT-29 cells) [1] is 39 nM; in experiment [2] it was more than 2000 nM; on PAR2 (HT-29 cells) [3] it was 53 nM; in experiment [4], more than 2000 nM.

In the case of `CC(C)(C)c1cc(-c2ccc(Cl)cc2)nc2cc(C(=O)N3CCN(C(=O)[C@H]4CCS(=O)(=O)N4)CC3(C)C)oc12` [Example I-475], the IC50 on PAR2 (HT-29 cells) [1] was 26 nM; in experiment [2], more than 2000 nM; at PAR2 (HT-29 cells) [3], 34 nM; in experiment [4] it was more than 2000 nM.

As for `Cc1nc(N2CCN(C(=O)c3cc4nc(-c5ccc(Cl)c(F)c5)cc(C(C)(C)C)c4o3)C(C)(C)C2)oc1C(=O)O` [Example I-476], the IC50 at PAR2 (HT-29 cells) [1] is 0.7 nM; in experiment [2] it was more than 500 nM; at PAR2 (HT-29 cells) [3], 1.6 nM; in experiment [4], more than 500 nM.

With `CC(C)(C)c1cc(-c2ccc(Cl)cc2)nc2cc(C(=O)N3CCN(c4cncc(C(=O)O)c4)CC3(C)C)oc12` [Example I-477], the IC50 on PAR2 (HT-29 cells) [1] is 0.7 nM; in experiment [2] it was more than 500 nM; on PAR2 (HT-29 cells) [3], 1.8 nM; in experiment [4] it was more than 500 nM.

For `Cc1nc(N2CCN(C(=O)c3cc4nc(-c5ccc(Cl)cc5)cc(C(C)(C)C)c4o3)C(C)(C)C2)oc1C(=O)O` [Example I-478], the IC50 was 1.9 nM at PAR2 (HT-29 cells) [1], more than 500 nM in experiment [2], 4.1 nM at PAR2 (HT-29 cells) [3] and more than 500 nM in experiment [4].

Take `CC(C)(C)c1cc(-c2ccc(Cl)cc2)nc2cc(C(=O)N3CCN(c4cccc(C(=O)O)n4)CC3(C)C)oc12` [Example I-479]: the IC50 at PAR2 (HT-29 cells) [1] is 0.2 nM; in experiment [2], 1500 nM; on PAR2 (HT-29 cells) [3], 0.3 nM; in experiment [4], 1030 nM.

As for `CC(C)(C)c1cc(-c2ccc(Cl)cc2)nc2cc(C(=O)N3CCN(c4nc(C(=O)O)co4)CC3(C)C)oc12` [Example I-481], the IC50 on PAR2 (HT-29 cells) [1] is 0.3 nM; in experiment [2] it was more than 1250 nM; on PAR2 (HT-29 cells) [3], 0.4 nM; in experiment [4] it was more than 1250 nM.

With `COc1ccc(N2CCN(C(=O)c3cc4nc(-c5ccc(Cl)c(F)c5)cc(C(C)(C)C)c4o3)C(C)(C)C2)nc1C(=O)O` [Example I-482], the IC50 on PAR2 (HT-29 cells) [1] is 0.2 nM; in experiment [2] it was more than 2000 nM; at PAR2 (HT-29 cells) [3], 0.2 nM; in experiment [4] it was 1200 nM.

Consider `CC(C)(C)c1cc(-c2ccc(Cl)cc2)nc2cc(C(=O)N3CCN(c4ncccn4)C(=O)C3(C)C)oc12` [Example I-483], for which the IC50 was 3.6 nM on PAR2 (HT-29 cells) [1], more than 2000 nM in experiment [2], 2.8 nM on PAR2 (HT-29 cells) [3] and more than 2000 nM in experiment [4].

Take `CC(C)(CN1CCN(C(=O)c2cc3nc(-c4ccc(Cl)c(F)c4)cc(C(C)(C)C)c3o2)C(C)(C)C1=O)C(=O)O` [Example I-484]: the IC50 at PAR2 (HT-29 cells) [1] is 0.5 nM; in experiment [2], more than 1100 nM; at PAR2 (HT-29 cells) [3] it was 1.1 nM; in experiment [4] it was more than 1100 nM.

Turning to `Cc1ccnc(N2CCN(C(=O)c3cc4nc(-c5ccc(Cl)c(F)c5)cc(C(C)(C)C)c4o3)C(C)(C)C2)c1C(=O)O` [Example I-485], the IC50 at PAR2 (HT-29 cells) [1] was 16 nM; in experiment [2], more than 2000 nM; on PAR2 (HT-29 cells) [3], 18 nM; in experiment [4], more than 2000 nM.
